Target: T1, recombinant His-tag Y220C p53 DBD protein (Homo sapiens, UniProt P04637, Y220C)
T1 construct: recombinant His-tag Y220C p53 DBD protein (amino acids #˜94-312)
Test: In vitro DNA binding activity assay (TR-FRET): binding of His-tag Y220C p53 DBD to biotin-labeled consensus DNA
Assay type: biochemical
Details: SC150 = concentration to increase DNA binding by […], His-tag Y220C p53 DBD, biotin-labeled consensus DNA

Compound	Y220C SC150 (μM)
CN1CC[C@H](Nc2cccc3c2cc(-c2noc(CNC(=O)C4CC4)n2)n3CC(F)(F)F)[C@H](F)C1 [Compound 174B, N-{[3-(4-{[(3R,4S)-3-fluoro-1-methylpiperidin-4-yl]amino}-1-(2,2,2-trifluoroethyl)-1H-indol-2-yl)-1,2,4-oxadiazol-5-yl]methyl}cyclopropanecarboxamide]	* (* = 0 μM ≤ SC150 < 0.1 μM)
CN1CC[C@@H](Nc2cccc3c2cc(-c2noc(CNC(=O)c4ccn(C)c4)n2)n3CC(F)(F)F)[C@@H](F)C1 [Compound 181B, N-{[3-(4-{[(3S,4R)-3-fluoro-1-methylpiperidin-4-yl]amino}-1-(2,2,2-trifluoroehyl)-1H-indol-2-yl)-1,2,4-oxadiazol-5-yl]methyl}-1-methyl-1H-pyrrole-3-carboxamide]	* (* = 0 μM ≤ SC150 < 0.1 μM)
CN1CC[C@H](Nc2cccc3c2cc(-c2noc(CNC(=O)c4ccn(C)c4)n2)n3CC(F)(F)F)[C@H](F)C1 [Compound 182B, N-{[3-(4-{[(3R,4S)-3-fluoro-1-methylpiperidin-4-yl]amino}-1-(2,2,2-trifluoroethyl)-1H-indol-2-yl)-1,2,4-oxadiazol-5-yl]methyl}-1-methyl-1H-pyrrole-3-carboxamide]	* (* = 0 μM ≤ SC150 < 0.1 μM)
CCn1ccc(C(=O)NCc2nc(-c3cc4c(N[C@@H]5CCN(C)C[C@@H]5F)cccc4n3CC(F)(F)F)no2)c1 [Compound 186B, 1-ethyl-N-{[3-(4-{[(3S,4R)-3-fluoro-1-methylpiperidin-4-yl]amino}-1-(2,2,2-trifluoroethyl)-1H-indol-2-yl)-1,2,4-oxadiazol-5-yl]methyl}-1H-pyrrole-3-carboxamide]	* (* = 0 μM ≤ SC150 < 0.1 μM)
CCn1ccc(C(=O)NCc2nc(-c3cc4c(N[C@H]5CCN(C)C[C@H]5F)cccc4n3CC(F)(F)F)no2)c1 [Compound 187B, 1-ethyl-N-{[3-(4-{[(3R,4S)-3-fluoro-1-methylpiperidin-4-yl]amino}-1-(2,2,2-trifluoroethyl)-1H-indol-2-yl)-1,2,4-oxadiazol-5-yl]methyl}-1H-pyrrole-3-carboxamide]	* (* = 0 μM ≤ SC150 < 0.1 μM)
CN1CC[C@@H](Nc2cccc3c2cc(-c2noc(CNC(=O)c4ccsc4)n2)n3CC(F)(F)F)[C@@H](F)C1 [Compound 189B, N-{[3-(4-{[(3S,4R)-3-fluoro-1-methylpiperidin-4-yl]amino}-1-(2,2,2-trifluoroethyl)-1H-indol-2-yl)-1,2,4-oxadiazol-5-yl]methyl}thiophene-3-carboxamide]	* (* = 0 μM ≤ SC150 < 0.1 μM)
CN1CC[C@H](Nc2cccc3c2cc(-c2noc(CNC(=O)c4ccsc4)n2)n3CC(F)(F)F)[C@H](F)C1 [Compound 190B, N-{[3-(4-{[(3R,4S)-3-fluoro-1-methylpiperidin-4-yl]amino}-1-(2,2,2-trifluoroethyl)-1H-indol-2-yl)-1,2,4-oxadiazol-5-yl]methyl}thiophene-3-carboxamide]	* (* = 0 μM ≤ SC150 < 0.1 μM)
CN1CC[C@@H](Nc2cccc3c2cc(-c2noc(CNC(=O)c4ccn(C(C)(C)C)c4)n2)n3CC(F)(F)F)[C@@H](F)C1 [Compound 194B, 1-tert-butyl-N-{[3-(4-{[(3S,4R)-3-fluoro-1-methylpiperidin-4-yl]amino}-1-(2,2,2-trifluoroethyl)-1H-indol-2-yl)-1,2,4-oxadiazol-5-yl]methyl}-1H-pyrrole-3-carboxamide]	* (* = 0 μM ≤ SC150 < 0.1 μM)
CN1CC[C@@H](Nc2cccc3c2cc(-c2noc(CNC(=O)c4cc5ccccn5c4)n2)n3CC(F)(F)F)[C@@H](F)C1 [Compound 196B, N-{[3-(4-{[(3S,4R)-3-fluoro-1-methylpiperidin-4-yl]amino}-1-(2,2,2-trifluoroethyl)-1H-indol-2-yl)-1,2,4-oxadiazol-5-yl]methyl}indolizine-2-carboxamide]	* (* = 0 μM ≤ SC150 < 0.1 μM)
CN1CC[C@@H](Nc2cccc3c2cc(-c2noc(CNC(=O)c4cn(-c5ccccc5)cn4)n2)n3CC(F)(F)F)[C@@H](F)C1 [Compound 197B, N-{[3-(4-{[(3S,4R)-3-fluoro-1-methylpiperidin-4-yl]amino}-1-(2,2,2-trifluoroethyl)-1H-indol-2-yl)-1,2,4-oxadiazol-5-yl]methyl}-1-phenyl-1H-imidazole-4-carboxamide]	* (* = 0 μM ≤ SC150 < 0.1 μM)
COCCn1ccc(C(=O)NCc2nc(-c3cc4c(N[C@@H]5CCN(C)C[C@@H]5F)cccc4n3CC(F)(F)F)no2)c1 [Compound 198B, N-{[3-(4-{[(3S,4R)-3-fluoro-1-methylpiperidin-4-yl]amino}-1-(2,2,2-trifluoroethyl)-1H-indol-2-yl)-1,2,4-oxadiazol-5-yl]methyl}-1-(2-methoxyethyl)-1H-pyrrole-3-carboxamide]	* (* = 0 μM ≤ SC150 < 0.1 μM)
CC(C)n1ccc(C(=O)NCc2nc(-c3cc4c(N[C@@H]5CCN(C)C[C@@H]5F)cccc4n3CC(F)(F)F)no2)c1 [Compound 199B, N-{[3-(4-{[(3S,4R)-3-fluoro-1-methylpiperidin-4-yl]amino}-1-(2,2,2-trifluoroethyl)-1H-indol-2-yl)-1,2,4-oxadiazol-5-yl]methyl}-1-(propan-2-yl)-1H-pyrrole-3-carboxamide]	* (* = 0 μM ≤ SC150 < 0.1 μM)
CN1CC[C@@H](Nc2cccc3c2cc(-c2noc(CNC(=O)c4ccncc4)n2)n3CC(F)(F)F)[C@@H](F)C1 [Compound 200B, N-{[3-(4-{[(3S,4R)-3-fluoro-1-methylpiperidin-4-yl]amino}-1-(2,2,2-trifluoroethyl)-1H-indol-2-yl)-1,2,4-oxadiazol-5-yl]methyl}pyridine-4-carboxamide]	* (* = 0 μM ≤ SC150 < 0.1 μM)
CN1CC[C@@H](Nc2cccc3c2cc(-c2noc(CNC(=O)c4ccccn4)n2)n3CC(F)(F)F)[C@@H](F)C1 [Compound 201B, N-{[3-(4-{[(3S,4R)-3-fluoro-1-methylpiperidin-4-yl]amino}-1-(2,2,2-trifluoroethyl)-1H-indol-2-yl)-1,2,4-oxadiazol-5-yl]methyl}pyridine-2-carboxamide]	* (* = 0 μM ≤ SC150 < 0.1 μM)
CN1CC[C@@H](Nc2cccc3c2cc(-c2noc(CNC(=O)c4cccnc4)n2)n3CC(F)(F)F)[C@@H](F)C1 [Compound 202B, N-{[3-(4-{[(3S,4R)-3-fluoro-1-methylpiperidin-4-yl]amino}-1-(2,2,2-trifluoroethyl)-1H-indol-2-yl)-1,2,4-oxadiazol-5-yl]methyl}pyridine-3-carboxamide]	* (* = 0 μM ≤ SC150 < 0.1 μM)
F[C@H]1CNCC[C@H]1Nc1cccc2c1cc(-c1noc(CNc3cn[nH]c3)n1)n2CC(F)(F)F [Compound 203B, N-[(3S,4R)-3-fluoropiperidin-4-yl]-2-(5-{[(1H-pyrazol-4-yl)amino]methyl}-1,2,4-oxadiazol-3-yl)-1-(2,2,2-trifluoroethyl)-1H-indol-4-amine]	* (* = 0 μM ≤ SC150 < 0.1 μM)
CN1CC[C@@H](Nc2cccc3c2cc(-c2noc(CNC(=O)c4ccn(CCF)c4)n2)n3CC(F)(F)F)[C@@H](F)C1 [Compound 205B, N-{[3-(4-{[(3S,4R)-3-fluoro-1-methylpiperidin-4-yl]amino}-1-(2,2,2-trifluoroethyl)-1H-indol-2-yl)-1,2,4-oxadiazol-5-yl]methyl}-1-(2-fluoroethyl)-1H-pyrrole-3-carboxamide]	* (* = 0 μM ≤ SC150 < 0.1 μM)
CN1CC[C@@H](Nc2cccc3c2cc(-c2noc(CNC(=O)[C@H]4C[C@H]4c4ccccc4)n2)n3CC(F)(F)F)[C@@H](F)C1 [Compound 206B, (1S,2R)-N-{[3-(4-{[(3S,4R)-3-fluoro-1-methylpiperidin-4-yl]amino}-1-(2,2,2-trifluoroethyl)-1H-indol-2-yl)-1,2,4-oxadiazol-5-yl]methyl}-2-phenylcyclopropane-1-carboxamide]	* (* = 0 μM ≤ SC150 < 0.1 μM)
CN1CC[C@@H](Nc2cccc3c2cc(-c2noc(CNC(=O)[C@@H]4C[C@@H]4c4ccccc4)n2)n3CC(F)(F)F)[C@@H](F)C1 [Compound 207B, (1R,2S)-N-{[3-(4-{[(3S,4R)-3-fluoro-1-methylpiperidin-4-yl]amino}-1-(2,2,2-trifluoroethyl)-1H-indol-2-yl)-1,2,4-oxadiazol-5-yl]methyl}-2-phenylcyclopropane-1-carboxamide]	** (** = 0.1 μM ≤ SC150 < 0.5 μM)
Cc1cc(C(=O)NCc2nc(-c3cc4c(N[C@@H]5CCN(C)C[C@@H]5F)cccc4n3CC(F)(F)F)no2)cs1 [Compound 208B, N-{[3-(4-{[(3S,4R)-3-fluoro-1-methylpiperidin-4-yl]amino}-1-(2,2,2-trifluoroethyl)-1H-indol-2-yl)-1,2,4-oxadiazol-5-yl]methyl}-5-methylthiophene-3-carboxamide]	* (* = 0 μM ≤ SC150 < 0.1 μM)
Cc1cscc1C(=O)NCc1nc(-c2cc3c(N[C@@H]4CCN(C)C[C@@H]4F)cccc3n2CC(F)(F)F)no1 [Compound 209B, N-{[3-(4-{[(3S,4R)-3-fluoro-1-methylpiperidin-4-yl]amino}-1-(2,2,2-trifluoroethyl)-1H-indol-2-yl)-1,2,4-oxadiazol-5-yl]methyl}-4-methylthiophene-3-carboxamide]	* (* = 0 μM ≤ SC150 < 0.1 μM)
CN1CC[C@@H](Nc2cccc3c2cc(-c2noc(CNC(=O)[C@@H]4C[C@H]4c4ccc(F)cc4)n2)n3CC(F)(F)F)[C@@H](F)C1 [Compound 210B, (1R,2R)-N-{[3-(4-{[(3S,4R)-3-fluoro-1-methylpiperidin-4-yl]amino}-1-(2,2,2-trifluoroethyl)-1H-indol-2-yl)-1,2,4-oxadiazol-5-yl]methyl}-2-(4-fluorophenyl)cyclopropane-1-carboxamide]	* (* = 0 μM ≤ SC150 < 0.1 μM)
Cc1sccc1C(=O)NCc1nc(-c2cc3c(N[C@@H]4CCN(C)C[C@@H]4F)cccc3n2CC(F)(F)F)no1 [Compound 211B, N-{[3-(4-{[(3S,4R)-3-fluoro-1-methylpiperidin-4-yl]amino}-1-(2,2,2-trifluoroethyl)-1H-indol-2-yl)-1,2,4-oxadiazol-5-yl]methyl}-2-methylthiophene-3-carboxamide]	* (* = 0 μM ≤ SC150 < 0.1 μM)
